Data: article PMC4835877, “HM71224, a novel Bruton’s tyrosine kinase inhibitor, suppresses B cell and monocyte activation and ameliorates arthritis in a mouse model: a potential drug for rheumatoid arthritis” (Arthritis Research & Therapy, 2016)
Read-outs that look alike come from different tables or passages of the source.

Columns and labels:
[1] = test system: human plasmacytoid dendritic cells; experiment: Cytokine production by human PDCs stimulated with CpG ODN or LPS (ELISA); type: cell-based; conditions: CpG ODN (TLR9 agonist), 1 μM, 48 h
Procedure: (§3) Human monocytes were stimulated with heat-inactivated ICs at 37 °C for 30 minutes in the presence of increasing concentrations of HM71224. Human PDCs were stimulated with lipopolysaccharide (LPS) or CpG ODN 2006 (ThermoFisher Scientific) for 48 h in the absence or presence of HM71224 (1 μM). The production of tumor necrosis factor (TNF)-α, interleukin (IL)-1β, and IL-6 was then measured using a commercial ELISA (R&D Systems). […] The levels of the indicated cytokines in the culture supernatant were then measured by ELISA at 5 h post stimulation. […] The levels of the indicated cytokines in the culture supernatant were then measured by ELISA at 48 h post stimulation.*P < 0.05, **P < 0.01, and ***P < 0.001 vs. no treatment. LPS lipopolysaccharide

human CD14+ monocytes [2] = experiment: Osteoclast formation from human CD14+ cells (TRAP staining); type: cell-based; conditions: Monocyte, 1000 nM
Procedure: Isolated human CD14 cells (1 × 10^5 cells per well) were cultured in a 96-well plate at 37 °C in alpha-minimum essential medium (MEM) supplemented with 10 % FBS and 25 ng/mL M-CSF (Sigma-Aldrich) in the presence of increasing concentrations of HM71224. RANKL (100 ng/mL, Sigma-Aldrich) was added after 3 days. The medium was replaced every 3 days. On day 9, cells were fixed with 3 % formaldehyde and stained for tartrate-resistant acid phosphatase (TRAP) expression (Sigma-Aldrich). To drive osteoclast formation from bone morrow cells, BMMs (4 × 10^4 per well) were stimulated with 30 ng/mL M-CSF and 100 ng/mL RANKL in the presence of increasing concentrations of HM71224 for 4 days. TRAP+ cells with three or more nuclei were counted as osteoclasts.

[3] = test system: phosphorylation of Btk, PLC-γ2, Erk; experiment: Phospho-flow cytometry of BCR-crosslinked human PBMCs; type: cell-based; conditions: anti-IgM F(ab')2
Procedure: (§1) For phospho-flow, B cells were activated by crosslinking their BCRs with anti-human IgM antibodies (10 μg/mL; BD Biosciences) for 10 minutes at 37 °C. Cells were then fixed with 2 % paraformaldehyde at 37 °C for 12 minutes, permeabilized, and stained with anti-CD3-FITC (SK7; BD Biosciences), anti-CD20-PerCP-Cy5.5 (H1; BD Biosciences), anti-pBtk (Y223)-Alexa647 (N35-86; BD Biosciences), anti-pPLCγ2 (Y759)-Alexa647 (K86-689.37; BD Biosciences), anti-pSTAT1 (Y701)-Alexa647 (4a; BD Biosciences), anti-pSTAT3 (Y705)-Alexa647 (4/P-STAT3; BD Biosciences), anti-pSTAT5 (Y694)-Alexa647 (47; BD Biosciences), and anti-pERK1/2 (T202/204)-Alexa647 (20A; BD Biosciences) antibodies. The cells were then washed and analyzed on an LSR II flow cytometer (BD Biosciences). Data were analyzed using FlowJo software, version 8.8 (Treestar, Ashland, OR, USA).

BTK [4] = molecular target: T1, BTK (Homo sapiens, UniProt Q06187); experiment: Btk occupancy in human PBMCs (biotinylated probe); type: cell-based; conditions: primary human cells (PBMCs), 100 nM
BTK [5] = molecular target: T1, BTK; experiment: Btk occupancy in Ramos cells (biotinylated probe); type: cell-based
Procedure: After treatment with HM71224, cells were lysed and then incubated for 1 h with 1 μM of biotinylated probe (HM71224 derivative). The lysed cells were loaded into streptavidin-coated wells and then incubated with an anti-Btk antibody (1:1000; clone number D3H5, Cell signaling Technology, Danvers, MA, USA) for 1 h, followed by a secondary HRP-conjugated antibody (1:10000; EMD Millipore Corporation, Billerica, MA, USA) at room temperature for 1 h. After washing, 100 μL of colorimetric solution (R&D systems, Minneapolis, MN, USA) was added, and the reaction was stopped 30 minutes later by addition of 100 μL of sulfuric acid (0.2 moles/L). The plate was read with the absorbance reader at 450 nm.
To measure Btk occupancy by immunoprecipitation (IP), biotinylated HM71224 probes were preincubated with cell lysates for 1 h at 4 °C. Streptavidin-coated beads were then added, and the mixture was incubated overnight at 4 °C. Immunoblotting was then performed, and band density was measured using MultiGauge V3.0 software (FUJI FILM, Tokyo, Japan). Untreated biotinylated probes were set at 100 %.

CD3+ T cells = experiment: T cell signaling, phospho-flow of CD3/CD28-activated PBMCs; type: cell-based, human; conditions: CD3- and CD28-conjugated beads
Procedure: as §1
Figure S5. Effect of HM71224 on human T cell signaling. […] The expression level of p-STAT1, p-STAT3, p-STAT5, and p-ERK1/2 by CD3+ T cells was then measured by phospho-flow cytometry.

human CD14+ monocytes [6] = experiment: Cytokine production by IC-stimulated human monocytes (ELISA); type: cell-based; conditions: heat-inactivated ICs, increasing concentrations
Procedure: as §3

TXK = molecular target: T2, TXK (Homo sapiens, UniProt P42681); experiment: FRET-based Z'-Lyte kinase assay; conditions: read-out: Biochemical Inhibition, IC50
T2 construct: purchased ThermoFisher Scientific (contract research organization)
Excerpt: (§2) To determine the biochemical selectivity of HM71224, we tested more than 85 kinases using the fluorescence resonance energy transfer (FRET) method.

TEC = molecular target: T3, TEC (Homo sapiens, UniProt P42680); experiment: FRET-based Z'-Lyte kinase assay; conditions: read-out: Biochemical Inhibition, IC50
T3 construct: purchased ThermoFisher Scientific (contract research organization)
Excerpt: as §2

LCK = molecular target: T4, LCK (Homo sapiens, UniProt P06239); experiment: FRET-based Z'-Lyte kinase assay; conditions: read-out: Biochemical Inhibition, IC50
T4 construct: purchased ThermoFisher Scientific (contract research organization)
Excerpt: as §2

[7] = test system: murine bone marrow-derived macrophages; experiment: Osteoclast formation from murine BMMs (TRAP staining); type: cell-based, mouse; conditions: M-CSF and RANKL, 4 days
EGFR = EGFR (Homo sapiens, UniProt P00533); experiment: FRET-based Z'-Lyte kinase assay; design: purchased ThermoFisher Scientific (contract research organization); conditions: read-out: Biochemical Inhibition, IC50
Excerpt: as §2

BTK [8] = molecular target: T1, BTK; experiment: FRET-based Z'-Lyte kinase assay; design: purchased ThermoFisher Scientific (contract research organization); conditions: read-out: Biochemical Inhibition, IC50
Excerpt: as §2

JAK3 = JAK3 (Homo sapiens, UniProt P52333); experiment: biochemical
[9] = test system: activated primary human B cells; experiment: Surface activation marker expression by activated B cells (flow cytometry); type: cell-based; conditions: B-cell, anti-IgM F(ab')2 for 24 h
Procedure: Human PBMCs (10^6 cells/mL) were allowed to rest at 37 °C for 2 h. […] To examine changes in the expression of surface activation markers, cells were stained with anti-CD3-FITC (SK7; BD Biosciences), anti-CD19-PE (HIB19; BD Biosciences), anti-CD40-PE-Cy7 (5C3; BD Biosciences), anti-CD69-V450 (FN50; BD Biosciences), and anti-CD86-PerCP-Cy5.5 (2331 (FUN-1); BD Biosciences) antibodies.

T1 sequence (Q06187 whole entry): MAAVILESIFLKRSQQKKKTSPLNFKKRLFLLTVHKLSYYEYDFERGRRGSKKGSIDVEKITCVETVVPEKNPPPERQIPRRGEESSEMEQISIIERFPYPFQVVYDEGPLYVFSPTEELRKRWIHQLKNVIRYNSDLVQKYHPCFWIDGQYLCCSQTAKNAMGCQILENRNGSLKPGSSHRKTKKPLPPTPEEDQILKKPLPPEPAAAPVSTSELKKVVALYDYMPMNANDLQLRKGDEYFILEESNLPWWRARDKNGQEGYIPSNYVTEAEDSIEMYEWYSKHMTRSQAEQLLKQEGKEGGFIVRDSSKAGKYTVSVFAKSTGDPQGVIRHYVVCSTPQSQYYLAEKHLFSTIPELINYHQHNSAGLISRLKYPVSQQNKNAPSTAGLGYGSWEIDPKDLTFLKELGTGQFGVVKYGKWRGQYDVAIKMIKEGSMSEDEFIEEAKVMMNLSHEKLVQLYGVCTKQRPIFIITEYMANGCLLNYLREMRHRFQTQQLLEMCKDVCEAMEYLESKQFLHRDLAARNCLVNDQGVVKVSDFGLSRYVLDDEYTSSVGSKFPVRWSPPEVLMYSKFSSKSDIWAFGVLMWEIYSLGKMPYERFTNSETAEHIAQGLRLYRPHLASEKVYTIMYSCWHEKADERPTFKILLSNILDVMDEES
T2 sequence (P42681 whole entry): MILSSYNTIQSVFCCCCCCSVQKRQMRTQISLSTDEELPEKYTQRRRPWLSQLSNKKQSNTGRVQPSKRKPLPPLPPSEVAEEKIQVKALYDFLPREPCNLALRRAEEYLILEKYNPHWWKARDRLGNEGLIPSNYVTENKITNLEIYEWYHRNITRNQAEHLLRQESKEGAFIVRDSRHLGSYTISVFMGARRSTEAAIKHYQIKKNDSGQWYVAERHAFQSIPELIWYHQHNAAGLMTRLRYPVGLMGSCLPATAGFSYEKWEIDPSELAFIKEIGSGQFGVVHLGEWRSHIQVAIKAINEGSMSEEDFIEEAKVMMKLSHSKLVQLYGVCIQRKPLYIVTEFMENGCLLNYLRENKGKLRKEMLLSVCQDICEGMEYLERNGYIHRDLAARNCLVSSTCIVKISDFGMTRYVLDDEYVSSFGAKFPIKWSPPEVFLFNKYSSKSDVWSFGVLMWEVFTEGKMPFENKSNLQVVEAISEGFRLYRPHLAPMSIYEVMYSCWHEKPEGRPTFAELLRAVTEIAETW
T4 sequence (P06239 whole entry): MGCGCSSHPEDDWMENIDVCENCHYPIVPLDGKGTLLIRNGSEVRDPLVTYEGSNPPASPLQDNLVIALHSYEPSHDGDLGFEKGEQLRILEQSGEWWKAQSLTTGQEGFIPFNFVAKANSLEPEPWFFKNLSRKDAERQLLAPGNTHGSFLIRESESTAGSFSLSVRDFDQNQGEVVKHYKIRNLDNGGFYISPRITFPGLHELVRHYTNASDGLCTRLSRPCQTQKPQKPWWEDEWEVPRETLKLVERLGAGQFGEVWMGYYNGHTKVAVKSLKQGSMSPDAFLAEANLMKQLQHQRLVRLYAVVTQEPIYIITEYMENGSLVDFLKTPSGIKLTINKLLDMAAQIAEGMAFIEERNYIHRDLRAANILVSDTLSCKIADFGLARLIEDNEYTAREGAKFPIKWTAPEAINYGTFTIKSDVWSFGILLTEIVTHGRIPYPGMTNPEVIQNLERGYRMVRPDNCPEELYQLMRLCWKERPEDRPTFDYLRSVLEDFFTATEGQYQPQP
T3 sequence (P42680 whole entry): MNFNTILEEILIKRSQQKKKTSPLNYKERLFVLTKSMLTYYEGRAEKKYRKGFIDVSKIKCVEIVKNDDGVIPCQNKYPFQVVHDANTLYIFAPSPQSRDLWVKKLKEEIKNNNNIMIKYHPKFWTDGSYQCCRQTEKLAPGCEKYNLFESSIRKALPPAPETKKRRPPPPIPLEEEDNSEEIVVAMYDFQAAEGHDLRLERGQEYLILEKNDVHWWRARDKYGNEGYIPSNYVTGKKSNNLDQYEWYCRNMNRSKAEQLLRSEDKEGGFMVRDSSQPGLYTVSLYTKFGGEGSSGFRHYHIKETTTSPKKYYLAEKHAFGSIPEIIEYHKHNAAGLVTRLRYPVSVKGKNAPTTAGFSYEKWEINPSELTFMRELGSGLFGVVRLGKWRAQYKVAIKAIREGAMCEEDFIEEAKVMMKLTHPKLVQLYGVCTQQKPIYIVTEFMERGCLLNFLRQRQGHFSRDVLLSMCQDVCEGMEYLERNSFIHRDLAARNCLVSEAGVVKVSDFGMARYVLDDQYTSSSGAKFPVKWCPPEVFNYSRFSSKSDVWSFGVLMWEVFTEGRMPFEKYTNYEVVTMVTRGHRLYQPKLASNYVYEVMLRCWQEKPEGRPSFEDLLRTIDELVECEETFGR
Sequence of JAK3 (P52333 whole entry): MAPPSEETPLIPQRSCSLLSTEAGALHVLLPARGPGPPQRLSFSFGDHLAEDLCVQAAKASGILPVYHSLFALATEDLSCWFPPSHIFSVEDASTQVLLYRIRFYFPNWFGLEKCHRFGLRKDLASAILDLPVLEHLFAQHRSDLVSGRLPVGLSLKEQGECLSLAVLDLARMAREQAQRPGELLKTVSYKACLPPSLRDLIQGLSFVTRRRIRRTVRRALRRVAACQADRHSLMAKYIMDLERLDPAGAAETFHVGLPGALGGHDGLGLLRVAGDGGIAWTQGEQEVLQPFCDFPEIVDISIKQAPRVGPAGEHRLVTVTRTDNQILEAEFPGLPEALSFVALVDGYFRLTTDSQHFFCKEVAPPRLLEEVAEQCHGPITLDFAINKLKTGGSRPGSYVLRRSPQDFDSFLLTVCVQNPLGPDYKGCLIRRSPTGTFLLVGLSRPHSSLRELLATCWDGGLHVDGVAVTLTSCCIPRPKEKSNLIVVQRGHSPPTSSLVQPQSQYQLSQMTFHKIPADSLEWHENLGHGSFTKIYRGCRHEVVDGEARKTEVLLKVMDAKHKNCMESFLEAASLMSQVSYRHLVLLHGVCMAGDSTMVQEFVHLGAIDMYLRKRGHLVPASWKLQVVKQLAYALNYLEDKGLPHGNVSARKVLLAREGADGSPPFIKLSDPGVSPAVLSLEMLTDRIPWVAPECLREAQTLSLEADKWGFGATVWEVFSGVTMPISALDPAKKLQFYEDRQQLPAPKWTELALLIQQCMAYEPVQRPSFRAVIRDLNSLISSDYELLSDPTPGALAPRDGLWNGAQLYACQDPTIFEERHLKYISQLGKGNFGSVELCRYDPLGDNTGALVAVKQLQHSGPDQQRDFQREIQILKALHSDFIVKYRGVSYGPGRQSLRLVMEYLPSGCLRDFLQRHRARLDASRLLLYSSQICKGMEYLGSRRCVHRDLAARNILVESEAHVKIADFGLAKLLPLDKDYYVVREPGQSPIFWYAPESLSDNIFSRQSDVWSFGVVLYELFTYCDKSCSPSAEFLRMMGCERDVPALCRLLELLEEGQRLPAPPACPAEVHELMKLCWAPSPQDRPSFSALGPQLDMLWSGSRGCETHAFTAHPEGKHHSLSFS
Sequence of EGFR (P00533 25-1210): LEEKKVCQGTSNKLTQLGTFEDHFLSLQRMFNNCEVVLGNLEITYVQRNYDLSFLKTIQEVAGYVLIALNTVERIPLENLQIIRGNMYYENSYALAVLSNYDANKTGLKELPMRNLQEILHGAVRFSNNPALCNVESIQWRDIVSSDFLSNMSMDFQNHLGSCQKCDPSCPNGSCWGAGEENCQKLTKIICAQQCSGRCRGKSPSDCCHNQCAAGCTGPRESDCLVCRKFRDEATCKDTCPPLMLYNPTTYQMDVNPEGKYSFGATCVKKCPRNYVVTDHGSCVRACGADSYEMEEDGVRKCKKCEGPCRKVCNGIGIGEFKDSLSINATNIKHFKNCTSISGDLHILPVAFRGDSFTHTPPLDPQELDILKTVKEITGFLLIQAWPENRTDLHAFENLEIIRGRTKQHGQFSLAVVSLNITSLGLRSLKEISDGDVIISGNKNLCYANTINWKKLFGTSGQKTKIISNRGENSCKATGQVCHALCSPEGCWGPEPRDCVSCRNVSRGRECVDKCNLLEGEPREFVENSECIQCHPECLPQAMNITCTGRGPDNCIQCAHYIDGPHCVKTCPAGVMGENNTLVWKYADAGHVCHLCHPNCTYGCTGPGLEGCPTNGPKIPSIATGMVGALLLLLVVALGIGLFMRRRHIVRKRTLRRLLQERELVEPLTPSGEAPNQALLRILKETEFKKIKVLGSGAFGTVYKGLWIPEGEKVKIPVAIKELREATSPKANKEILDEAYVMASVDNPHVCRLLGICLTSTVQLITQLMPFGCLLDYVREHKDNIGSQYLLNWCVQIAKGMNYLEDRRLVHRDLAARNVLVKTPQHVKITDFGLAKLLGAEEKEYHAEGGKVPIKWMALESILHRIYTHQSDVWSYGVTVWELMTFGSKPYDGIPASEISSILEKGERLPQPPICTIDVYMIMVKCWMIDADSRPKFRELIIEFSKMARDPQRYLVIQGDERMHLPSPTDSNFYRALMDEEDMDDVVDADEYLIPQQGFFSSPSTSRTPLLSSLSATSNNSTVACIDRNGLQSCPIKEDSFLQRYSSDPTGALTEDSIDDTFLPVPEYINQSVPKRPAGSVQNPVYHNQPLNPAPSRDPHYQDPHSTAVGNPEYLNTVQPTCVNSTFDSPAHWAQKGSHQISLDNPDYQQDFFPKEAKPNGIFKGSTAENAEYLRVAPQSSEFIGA

Btk sites occupied (BTK [4]): > 70%
Btk molecules occupied (BTK [5]; 10 nM): approximately 90%
Btk molecules occupied (BTK [5]; 100 nM): ~100%
IC50 (TXK): 4.62 nM
IC50 (TEC): 4.57 nM
IC50 (LCK): > 1000 nM
IC50 (EGFR): 4.96 nM
IC50 (BTK [8]): 1.95 nM
IC50 (JAK3): 14.6 nM
IC50 ([9]; read-out: IC50, surface expression of CD40): 4.2 nM
IC50 ([9]; read-out: IC50, surface expression of CD69): 4.2 nM
IC50 ([9]; read-out: IC50, surface expression of CD86): 7.7 nM
SMILES: C=CC(=O)Nc1cccc(Oc2nc(Nc3ccc(N4CCN(C)CC4)cc3)nc3ccoc23)c1 [HM71224]
CpG-mediated production of TNF-α and IL-6 [1]: inhibited CpG-mediated cytokine production
inhibition at 1 µM (human CD14+ monocytes [2]): ~50%
Phosphorylation of Btk and Erk by phospho-flow [3]: inhibited phosphorylation of BTK, and p-Erk in a dose-dependent manner
T cell receptor signaling (p-STAT1, p-STAT3 and p-STAT5) (CD3+ T cells): not affected
p-ERK1/2 in CD3+ T cells (CD3+ T cells): inhibited
Production of TNF-α, IL-1β, and IL-6 (human CD14+ monocytes [6]): inhibited in a dose-dependent manner
Osteoclast formation from murine BMMs [7]: inhibited osteoclast formation from murine BMMs
